In publication PMC7796559, “Connecting the conformational behavior of cyclic octadepsipeptides with their ionophoric property and membrane permeability” (Organic & biomolecular chemistry, 2020):
Like-named read-outs stand apart in the source and are kept apart here. Blank lines part the entries; values can stand above or below the molecule they belong to. Non-standard residues stand in square brackets, D forms with d. Residues, ends and D or L forms follow the SMILES beside them. dPhLac = O=C(O)[C@H](O)Cc1ccccc1; NMeL = CN[C@@H](CC(C)C)C(=O)O; dLac = C[C@@H](O)C(=O)O

Columns and labels:
nematodes = conditions: cited from earlier work
[1] = Site-to-site exchange rates from EXSY peaks in EASY-ROESY; format: physicochemical; conditions: for kex / k1 / k2: EASY-ROESY, mixing time 100 ms, CDCl3; for k1 / k2: site-to-site exchange rate
Experimental: Following ref. [76] and [77], site-to-site rates were determined in a straightforward way by taking the logarithm of matrix A = M × M0^−1 containing the volumes of cross- and diagonal peaks of the exchanging sites (Hα of Mle^2, Mle^6 and Mle^26) divided by their magnetic fraction M0 (i.e. the relative intensities of the corresponding resonances in the ^1H NMR spectrum) as an approximation of M(0): (1) M=e^Ltm×M0 (2) A=(IAA/M0AIAB/M0BIAC/M0CIBA/M0AIBB/M0BIBC/M0CICA/M0AICB/M0BICC/M0C) (3) 1/tmln(A)=(kBA+kCA−R1kABkACkBA−kAB−R10kBC0−kAC−R1)
L is the difference between the kinetic matrix K containing the site-to-site rate constants and the relaxation matrix R, tm is the mixing time used in the ROESY experiment, and Ri are the auto-relaxation rates of the exchanging sites in the symmetric (A) and asymmetric (B, C) conformations.
EXSY peak volumes extracted from the ROESY spectrum (shown schematically in Fig. 13) and the magnetic fractions in the 1H NMR spectrum are inserted in matrix A (eqn 4). Site-to-site rates are obtained by taking the logarithm of matrix A and dividing the result by the mixing time (0.1 s) (eqn 5): kAB = kAC = 0.09 s^−1 and kBA = kCA = 0.16 s^−1 (averaged rates). Calculations were carried out in Mathematica 12.0.[78] (4) A=(77.9/11.52/1.51.55/1.51.59/1236/1.50/1.51.75/10/1.5200/1.5) (5) 1/0.1ln(A)=(43.55240.090.100.1450.580.000.170.0048.9)

[2] = PAMPA with and without potassium salt; format: in vitro ADME; conditions: for recovery at 10 μM / Papp at 10 µM / Papp: PAMPA; for PAMPA permeability (in words): independent of the addition of potassium salt
Experimental: PAMPA was performed using a 96-well filter donor plate with 0.45 μm hydrophobic Immobilon-P membrane supports (Millipore MAIPNTR10) and a 96-well Teflon acceptor plate (Millipore MSSACCEPTOR). The donor plate was prepared by applying 5 μL of 1% (w/v) soybean lecithin (90%, Alfa Aesar) in n-dodecane to each filter. The acceptor plate was prepared by addition of 300 μl of pH = 7.4 phosphate-buffered saline (PBS) with 5% DMSO to each well. Donor solutions composed of PBS with 5% DMSO, 10 μM carbamazepine standard, and 10 μM compound 1, 2 or 8 were prepared with and without additional KCl (0.27 mM or 100.27 mM K^+ concentration) before addition of 150 μl to each donor well, with all conditions run in quadruplicate. The donor plate was then loaded into the acceptor plate and was left in a sealed, damp chamber at 25 °C for approximately 17 hours (exact times recorded and used in calculation of Pe). The plates were then separated, and 100 μl of solution from each well was transferred to another plate for LC-MS analysis. Permeabilities were calculated identically to a previous study.[80]

efflux transporter P-gp = system: efflux transporter P-gp; design: method as in PMID 25131706; conditions: cited from earlier work
[3] = Cation binding in apolar solvent (chloroform) by NMR; format: physicochemical; conditions: CDCl3; solid KSCN and sonication (1) or saturated KSCN solution in D2O, phase separation (2)
Experimental: It is known that valinomycin, a cyclic dodecadepsipeptide, as well as some crown ethers can bind cations even in an apolar solvent.[59]–[61] This ability is an indirect evidence that the ion-bound complex may exist inside the membrane interior, i.e. that ion transport across a membrane is possible. To assess if the cyclic octadepsipeptides are also able to bind cations in an apolar solvent, KSCN was added to a solution of 1 in chloroform and sonicated for several hours.

Caco-2 = system: Caco-2; design: method as in PMID 26067057, PMID 32121188; conditions: cited from earlier work
[4] = design: method as in PMID 26067057; conditions: PAMPA; cited from earlier work
[5] = design: method as in PMID 22138252, PMID 24061379; conditions: cited from earlier work
[6] = design: method as in PMID 22138252, PMID 24061379; conditions: cited from earlier work; remark: listed apart in the source
mycobacteria = system: mycobacteria; design: method as in PMID 5879163; conditions: cited from earlier work
ryanodine-binding = system: ryanodine-binding; design: method as in PMID 20057513; conditions: cited from earlier work
[7] = pH 7.4, PAMPA, + 100 mM KCl, read-out: Average Recovery Rate
[8] = pH 7.4, PAMPA, without additional KCl, read-out: Average Recovery Rate
[9] = without additional KCl (0.27 mM K+), PBS pH 7.4 with 5% DMSO, 10 μM compound, approx. 17 hours, 25 °C, read-out: Average Permeability with standard deviation in brackets
[10] = worked example, mixing time 0.1 s

SMILES: CC(C)CC1C(=O)OC(Cc2ccccc2)C(=O)N(C)C(CC(C)C)C(=O)OC(C)C(=O)N(C)C(CC(C)C)C(=O)OC(Cc2ccccc2)C(=O)N(C)C(CC(C)C)C(=O)OC(C)C(=O)N1C (single isomer, unassigned) [enantiomer of PF1022A]
Anthelmintic activity (in words) (nematodes): no anthelmintic activity

recovery at 10 μM [2, 7]: 6.8% | recovery at 10 μM [2, 8]: 26.2% | Papp at 10 µM [2, 9]: 0.08 ×10⁻⁶ cm/s | PAMPA permeability (in words) [2]: no permeability was detected
SMILES: CC(C)C[C@H]1C(=O)O[C@H](Cc2ccccc2)C(=O)N(C)[C@@H](CC(C)C)C(=O)O[C@H](C)C(=O)N(C)N(CC(C)C)C(=O)O[C@H](Cc2ccccc2)C(=O)N(C)N(CC(C)C)C(=O)O[C@H](C)C(=O)N1C [Bis-aza analog (8)]
kex [1]: 0.19 s⁻¹ | k1 [1]: 0.17 s⁻¹ | k2 [1]: 0.02 s⁻¹ | Biological activity weaker by a factor compared to 1 (nematodes): 5–10

Papp at 10 µM ([2]; pH 7.4, 10 μM standard in donor solutions, with and without 100 mM KCl, read-out: Permeability of PAMPA control): 7.94 to 11.1 ×10⁻⁶ cm/s | recovery at 10 μM ([2]; pH 7.4, 10 μM standard in donor solutions, with and without 100 mM KCl, read-out: Recovery rate of PAMPA control): 85.4 to 200%
SMILES: NC(=O)N1c2ccccc2C=Cc2ccccc21 [Carbamazepine, carbamazepine, reference compound]

recovery at 10 μM [2, 7]: 27.3% | recovery at 10 μM [2, 8]: 78.7% | PAMPA permeability (in words) [2]: no permeability was detected
SMILES: CC(C)C[C@H]1C(=O)O[C@H](Cc2ccc(N3CCOCC3)cc2)C(=O)N(C)[C@@H](CC(C)C)C(=O)O[C@H](C)C(=O)N(C)[C@@H](CC(C)C)C(=O)O[C@H](Cc2ccc(N3CCOCC3)cc2)C(=O)N(C)[C@@H](CC(C)C)C(=O)O[C@H](C)C(=O)N1C [Emodepside (2), reference compound]
kex [1]: 0.18 s⁻¹ | k1 [1]: 0.12 s⁻¹ | k2 [1]: 0.06 s⁻¹ | Substrate of the efflux transporter P-gp (efflux transporter P-gp): substrate | Conformation detected in chloroform after contact with KSCN [3]: the symmetric conformation is present almost exclusively | Anthelmintic activity relative to PF1022A (in words) (nematodes): increased anthelmintic activity

SMILES: CC(C)[C@H]1C(=O)O[C@H](C(C)C)C(=O)N(C)[C@@H](C(C)C)C(=O)O[C@H](C(C)C)C(=O)N(C)[C@@H](C(C)C)C(=O)O[C@H](C(C)C)C(=O)N1C [Enniatin B, enniatin B]
Permeability in Caco-2 permeability assay (Caco-2): 610 ×10⁻⁶ cm/s | log Pe [4]: −4.73

SMILES: CC(C)C[C@H]1C(=O)O[C@H](Cc2ccc(I)cc2)C(=O)N(C)[C@@H](CC(C)C)C(=O)O[C@H](C)C(=O)N(C)[C@@H](CC(C)C)C(=O)O[C@H](Cc2ccccc2)C(=O)N(C)[C@@H](CC(C)C)C(=O)O[C@H](C)C(=O)N1C [Mono-iodo analog (11)]
kex [1]: 0.26 s⁻¹ | k1 [1]: 0.17 s⁻¹ | k2 [1]: 0.09 s⁻¹

SMILES: CC(C)CC1C(=O)OC(Cc2ccccc2)C(=O)N(C)C(CC(C)C)C(=O)OC(C)C(=O)N(C)C(CC(C)C)C(=O)OC(Cc2ccccc2)C(=O)N(C)C(CC(C)C)C(=O)OC(C)C(=O)N1C (stereo not drawn) [PF1022A (1)]
kex [1]: 0.25 s⁻¹ | k1 [1]: 0.16 s⁻¹ | k2 [1]: 0.09 s⁻¹ | kAB = kAC (averaged site-to-site rate) [1, 10]: 0.09 s⁻¹ | kBA = kCA (averaged site-to-site rate) [1, 10]: 0.16 s⁻¹ | Conformation detected in chloroform after contact with KSCN [3]: only the symmetric conformation could be detected | Papp ([2]; pH 7.4, PAMPA, + 100 mM KCl (100.27 mM K+), PBS pH 7.4 with 5% DMSO, 10 μM compound, approx. 17 hours, 25 °C, read-out: Average Permeability with standard deviation in brackets): 0.02 ×10⁻⁶ cm/s | recovery at 10 μM [2, 7]: 57.4% | recovery at 10 μM [2, 8]: 18.4% | Papp [2, 9]: 0.06 ×10⁻⁶ cm/s | PAMPA permeability (in words) [2]: no permeability was detected

SMILES: CC(C)C1OC(=O)C(C(C)C)N(C)C1=O (stereo not drawn) [compound 3, 3,6-di-(propan-2-yl)-4-methyl-morpholine-2,5-dione]
Antioxidant activity (in words) [5]: moderate | Antimicrobial activity (in words) [6]: moderate

SMILES: CC(C)C[C@H]1C(=O)O[C@H](C(C)C)C(=O)N(C)[C@@H](CC(C)C)C(=O)O[C@H](C(C)C)C(=O)N1C [compound 4, cyclo-(N-methyl L-leucine D-hydroxyisovaleric acid)2]
Activity against mycobacteria (in words) (mycobacteria): no activity

SMILES: CCCCC[C@H]1OC(=O)[C@H](C)N(C)C(=O)[C@@H](CCCCC)OC(=O)[C@H](C)N(C)C(=O)[C@@H](CCCCC)OC(=O)[C@H](C)N(C)C(=O)[C@@H](CCCCC)OC(=O)[C@H](C)N(C)C1=O [compound 7, verticilide]
Ryanodine binding (in words) (ryanodine-binding): ryanodine-binding inhibitor

SMILES: CC(C)C[C@H]1C(=O)O[C@H](Cc2ccccc2)C(=O)N(C)[C@@H](CC(C)C)C(=O)O[C@H](C)C(=O)N(C)[C@@H](CC(C)C)C(=O)N2CCC[C@@H]2C(=O)N2CCC[C@H]2C(=O)O[C@H](C)C(=O)N1C [compound 9] (cyclo([dLac][NMeL][dPhLac][NMeL][dLac][NMeL][dP]P))
Biological activity higher by a factor compared to 1 (nematodes): 2

SMILES: CC(C)C[C@H]1C(=O)O[C@H](Cc2ccccc2)C(=S)N(C)[C@@H](CC(C)C)C(=O)O[C@H](C)C(=S)N(C)[C@@H](CC(C)C)C(=O)O[C@H](Cc2ccccc2)C(=S)N(C)[C@@H](CC(C)C)C(=O)O[C@H](C)C(=S)N1C [compound 10]
Activity increased (times) compared to 1 (nematodes): 2.5
